Data taken from US9303009B2, “Migrastatins and uses thereof” (Sloan-Kettering Institute for Cancer Research, priority 2011, dated 2016).

Experiments:
AC3-TGL cells = experiment: human SCLC xenograft model, Example 17; assay type: in vivo; conditions: for tumor growth kinetics at the primary site of injection: all doses
Description: Evaluation of the anti-metastatic activity of ME (19) and CME (25) in a human SCLC xenograft model. These cells, in primary and subsequent in vivo passages in NOD/SCID mice, tend to form liver metastases. The tumor cells were stably transduced with a triple-fusion protein reporter construct (AC3-TGL), and then transplanted by subcutaneous injection with matrigel into NOD/SCID IL2R gamma null (NSG) mice.
Starting 1 day prior to the inoculation of tumor cells, groups of mice were treated with ME at doses of 10 mg/kg, 40 mg/kg, or 200 mg/kg, or with CME at 12 mg/kg or 49 mg/kg (note: dosage levels were adjusted to account for differences in molecular weight: 1 mg ME=1.2 mg CME). Control mice were treated with DMSO vehicle. The compounds were administered by i.p. injection every three days, from Day −1 to Day 55 following cell injection (n≧5 mice per group). During this time, tumor burden and metastatic spread were monitored by serial non-invasive bioluminescent imaging (BLI) at Days 14, 23, 30, 40, and 50. At Day 55, the mice were sacrificed and the metastatic spread of tumor cells to the lungs, liver, heart, kidneys, and spleen was assessed by ex-vivo BLI on the removed organs.
For the results depicted in FIGS. 7a-b: AC3-TGL cells were transplanted by subcutaneous ventral injection into NSG mice. Xenografted mice were treated with indicated dosages of CME or ME every 3 days starting 1 day prior to the inoculation of tumor cells: ME 10 mg/kg (ME10, n=5), 40 mg/kg (ME40, n=5), 200 mg/kg (ME200, n=5), CME 12 mg/kg (CME12, n=5), 49 mg/kg (CME49, n=5) and DMSO vehicle (control, n=6). At day 55, the mice were sacrificed. Three mice in the ME200 group died before the end of treatment. Tumor metastasis at endpoint: At day 55, mice were analyzed for metastasis by ex vivo BLI quantifying luciferase activity in the excised lungs, (Lu), liver (Li), heard (H), kidneys (K), and the spleen (S). Measurements for each mouse are presented in FIG. 7a (circles), with the average per group (short line) and expressed as photon flux (flux in photon/sec) in log scale. P-values were obtained using two-tailed Mann-Whitney U-test. Each picture is presented with the same settings (4 min exposure, photon signal, color scale from 3.10^4 (min) to 5.10^6 (max)).
Xenograft Model for Example 17: A human primary SCLC xenograft model was developed in 10-14 weeks old male NSG mice. Primary tumor samples were obtained after patient informed consent under an MSKCC IRB approved protocol. AC3-TGL tumor cells growing as clumps were dissociated into a single-cell suspension by Trypsin/Collagenase IV (Invitrogen) sequential treatment. Xenografts were performed by subcutaneous ventral injection of 500 AC3-TGL cells in serum-free medium mixed with Matrigel (Becton Dickinson).
One day prior to the tumor cell injection, mice were pretreated with either: (1) Migrastatin Ether (ME) at a dose of 10 mg/kg, 40 mg/kg or 200 mg/kg per mouse; (2) Carboxymethyl-ME (CME) at a dose of 12 mg/kg or 49 mg/kg; or (3) DMSO vehicle control (n≧5 mice per group). Drug treatment was delivered by intraperitoneal injection every 3 days starting from day −1 after cell injection to day 55. During this time, the tumor burden and metastatic spread were monitored by bioluminescence imaging (BLI) at day 14, 23, 30, 40, and 50. At day 55 (endpoint), the mice were killed and the metastatic spread of tumor cells to the lungs, liver, heart, kidneys, and spleen was assessed by ex-vivo BLI on the surgically resected organs.

A549 cells = experiment: in vitro wound-healing (scratch) assay; assay type: cell-based, human; conditions: for migration in response to a scratch wound: 100 μM
Description: This Example evaluates the anti-metastatic properties of new migrastatin analogs by assessing their ability to inhibit in vitro cancer cell migration in a wound-healing assay and their chemotaxis in a transwell migration assay. […] Similar results were obtained with a panel of human lung cancer cell lines (H1975, H647, H522, H1703, data not shown).
For the results depicted in FIG. 3, A549 cancer cells were grown as nearly confluent monolayer culture and then starved overnight in medium containing 0.5% FCS. Cell monolayers were then scratched using pipette tip, photographed, and incubated with a 6 log-scaled concentration range of ME and CME from 10^−3 to 10^−8M, with or without 2% FCS. After 12 H, areas were fixed, stained and photographed using computer-assisted microscopy. Micrographs (4× magnification) are presented, showing the A549 cancer cell migration across the scratches in absence of serum (no migration), presence of serum (migration), and in the presence of serum plus CME or ME at 100 μM or 100 nM.
Wound-Healing Assay: Cancer cells migration was measured using an “in vitro wound-healing assay” (or scratch assay) performed in a 12-well plate (Becton Dickinson). Briefly, cancer cells were seeded at a density of 5-10×10^4 cells per well, grown to near confluent monolayers in 10% serum-supplemented M5 medium and then starved overnight in a low serum medium (0.5% FCS). Perpendicular wounds were scratched through the cell monolayer using a sterile 200 μL pipette tip. The cells were then washed twice very gently using PBS and the scratched areas were photographed at 4× and 20× magnification using computer-assisted microscopy. […] Each well was photographed at 4× and 20× magnification and the pictures analyzed with CellProfiler2.0 cell image analysis software as previously described, (Carpenter A E, Jones T R, Lamprecht M R, Clarke C, Kang I H et al. (2006), Genome Biology 7(10):R100). The migration in response to the test condition was calculated as cell coverage of the original cell-free zone and related to DMSO vehicle control.

| Compound | Inhibition factor (IF) of overall metastasis (AC3-TGL cells; 12 mg/kg i.p. every 3 days, day 55) | toxicity (AC3-TGL cells; 12 mg/kg or 49 mg/kg cohorts) | Inhibition factor (IF) of overall metastasis (AC3-TGL cells; 49 mg/kg i.p. every 3 days, day 55) | tumor growth kinetics at the primary site of injection (AC3-TGL cells) | potency relative to ME in inhibiting in vivo metastasis (AC3-TGL cells; at the lowest dosage level) | migration in response to a scratch wound (A549 cells) | inhibition of migration (A549 cells; submicromolar concentrations) | deaths prior to the study endpoint (AC3-TGL cells; 10 mg/kg group) | Inhibition factor (IF) of overall metastasis (AC3-TGL cells; 10 mg/kg i.p. every 3 days, day 55) | deaths prior to the study endpoint (AC3-TGL cells; 40 mg/kg group) | Inhibition factor (IF) of overall metastasis (AC3-TGL cells; 40 mg/kg i.p. every 3 days, day 55) | deaths prior to the study endpoint (AC3-TGL cells; 200 mg/kg group) | Inhibition factor (IF) of overall metastasis (AC3-TGL cells; 200 mg/kg i.p. every 3 days, day 55, 2 surviving mice) |
| --- | --- | --- | --- | --- | --- | --- | --- | --- | --- | --- | --- | --- | --- |
| CO[C@H]1/C=C/CCCCCOC/C(C)=C\[C@@H](C)[C@@H]1OCC(=O)O [CME, Carboxymethyl migraether] | 99.3% | no toxicity was observed | 99.8% | did not significantly affect | approximately 4 times | almost completely blocked | 32% | – | – | – | – | – | – |
| CO[C@H]1/C=C/CCCCCOC/C(C)=C\[C@@H](C)[C@@H]1O [ME, migrastatin ether] | – | – | – | did not significantly affect | – | almost completely blocked | – | 2 mice | 96.2% | 2 mice | 99.1% | 3 mice | 99.8% |
